According to PubChem BioAssay (NCI):
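Test compounds were applied to cells in 96-well plates for 48 hours at 5 doses. GI50 is the concentration that inhibits growth by half. TGI is the concentration that stops growth completely.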

How the values were obtained:
Experiment in all cases: NCI-60 cell line screen, 48 h
786-0 renal = system: 786-0 renal
A498 renal = system: A498 renal
A549 NSCLC = system: A549 NSCLC
ACHN renal = system: ACHN renal
BT-549 breast = system: BT-549 breast
CCRF-CEM leukemia = system: CCRF-CEM leukemia
COLO 205 colon = system: COLO 205 colon
DU-145 prostate = system: DU-145 prostate
EKVX NSCLC = system: EKVX NSCLC
HCC-2998 colon = system: HCC-2998 colon
HCT-116 colon = system: HCT-116 colon
HCT-15 colon = system: HCT-15 colon
HL-60(TB) leukemia = system: HL-60(TB) leukemia
HOP-62 NSCLC = system: HOP-62 NSCLC
HOP-92 NSCLC = system: HOP-92 NSCLC
HS 578T breast = system: HS 578T breast
HT29 colon = system: HT29 colon
IGROV1 ovarian = system: IGROV1 ovarian
K-562 leukemia = system: K-562 leukemia
KM12 colon = system: KM12 colon
LOX IMVI melanoma = system: LOX IMVI melanoma
M14 melanoma = system: M14 melanoma
MALME-3M melanoma = system: MALME-3M melanoma
MCF7 breast = system: MCF7 breast
MDA-MB-231 breast = system: MDA-MB-231 breast
MDA-MB-435 = system: MDA-MB-435
MOLT-4 leukemia = system: MOLT-4 leukemia
NCI-H226 lung = system: NCI-H226 lung
NCI-H23 lung = system: NCI-H23 lung
NCI-H460 lung = system: NCI-H460 lung
NCI-H522 lung = system: NCI-H522 lung
NCI/ADR-RES ovarian = system: NCI/ADR-RES ovarian
OVCAR-3 ovarian = system: OVCAR-3 ovarian
OVCAR-4 ovarian = system: OVCAR-4 ovarian
OVCAR-5 ovarian = system: OVCAR-5 ovarian
OVCAR-8 ovarian = system: OVCAR-8 ovarian
PC-3 prostate = system: PC-3 prostate
RPMI-8226 leukemia = system: RPMI-8226 leukemia
RXF 393 renal = system: RXF 393 renal
SF-268 CNS = system: SF-268 CNS
SF-295 CNS = system: SF-295 CNS
SK-MEL-2 melanoma = system: SK-MEL-2 melanoma
SK-MEL-28 melanoma = system: SK-MEL-28 melanoma
SK-MEL-5 melanoma = system: SK-MEL-5 melanoma
SK-OV-3 ovarian = system: SK-OV-3 ovarian
SN12C renal = system: SN12C renal
SNB-19 CNS = system: SNB-19 CNS
SNB-75 CNS = system: SNB-75 CNS
SW-620 colon = system: SW-620 colon
T-47D breast = system: T-47D breast
TK-10 renal = system: TK-10 renal
U251 CNS = system: U251 CNS
UACC-62 melanoma = system: UACC-62 melanoma
UO-31 renal = system: UO-31 renal
CAKI-1 renal = system: CAKI-1 renal
SF-539 CNS = system: SF-539 CNS
SR leukemia = system: SR leukemia
UACC-257 melanoma = system: UACC-257 melanoma

## COc1ccc2c(c1)OC1=C(C(=O)OC1)C2c1cc(OC)c(OC)c(OC)c1 (centres undefined)
786-0 renal
  GI50: 0.632 µM
  TGI: > 100 µM
A498 renal
  GI50: 0.281 µM
  TGI: 15.1 µM
A549 NSCLC
  GI50: 0.61 µM
  TGI: > 100 µM
ACHN renal
  GI50: 1.27 µM
  TGI: > 100 µM
BT-549 breast
  GI50: 1.29 µM
  TGI: > 100 µM
CCRF-CEM leukemia
  GI50: 0.315 µM
  TGI: > 100 µM
COLO 205 colon
  GI50: 0.312 µM
  TGI: 0.974 µM
DU-145 prostate
  GI50: 0.529 µM
  TGI: > 42.4 µM
EKVX NSCLC
  TGI: > 100 µM
HCC-2998 colon
  GI50: 1.27 µM
  TGI: > 100 µM
HCT-116 colon
  GI50: 0.535 µM
  TGI: > 100 µM
HCT-15 colon
  GI50: 0.499 µM
  TGI: > 100 µM
HL-60(TB) leukemia
  GI50: 0.256 µM
  TGI: 0.673 µM
HOP-62 NSCLC
  GI50: 0.545 µM
  TGI: > 100 µM
HOP-92 NSCLC
  GI50: 3.99 µM
  TGI: > 100 µM
HS 578T breast
  GI50: 0.324 µM
  TGI: > 100 µM
HT29 colon
  GI50: 0.345 µM
  TGI: > 100 µM
IGROV1 ovarian
  GI50: 3.18 µM
  TGI: > 100 µM
K-562 leukemia
  GI50: 0.199 µM
  TGI: > 100 µM
KM12 colon
  GI50: 0.396 µM
  TGI: > 89.6 µM
LOX IMVI melanoma
  GI50: 0.608 µM
  TGI: > 100 µM
M14 melanoma
  GI50: 0.471 µM
  TGI: > 100 µM
MALME-3M melanoma
  GI50: 0.468 µM
  TGI: 87.6 µM
MCF7 breast
  GI50: 0.35 µM
  TGI: > 100 µM
MDA-MB-231 breast
  GI50: 1.3 µM
  TGI: > 100 µM
MDA-MB-435
  GI50: 0.104 µM
  TGI: 0.358 µM
MOLT-4 leukemia
  GI50: 0.542 µM
  TGI: > 47.2 µM
NCI-H226 lung
  GI50: 0.441 µM
  TGI: 5.99 µM
NCI-H23 lung
  GI50: 0.609 µM
  TGI: > 100 µM
NCI-H460 lung
  GI50: 0.359 µM
  TGI: > 81.2 µM
NCI-H522 lung
  GI50: 0.273 µM
  TGI: 2.02 µM
NCI/ADR-RES ovarian
  GI50: 0.325 µM
  TGI: > 100 µM
OVCAR-3 ovarian
  GI50: 0.313 µM
  TGI: 1.14 µM
OVCAR-4 ovarian
  GI50: 1.42 µM
  TGI: > 100 µM
OVCAR-5 ovarian
  GI50: 4.3 µM
  TGI: > 100 µM
OVCAR-8 ovarian
  GI50: 0.709 µM
  TGI: > 100 µM
PC-3 prostate
  GI50: 0.391 µM
  TGI: > 100 µM
RPMI-8226 leukemia
  GI50: 0.514 µM
  TGI: > 100 µM
RXF 393 renal
  GI50: 0.231 µM
  TGI: 0.735 µM
SF-268 CNS
  GI50: 1.91 µM
  TGI: > 100 µM
SF-295 CNS
  GI50: 0.279 µM
  TGI: > 100 µM
SK-MEL-2 melanoma
  GI50: 0.518 µM
  TGI: > 100 µM
SK-MEL-28 melanoma
  GI50: 0.667 µM
  TGI: > 100 µM
SK-MEL-5 melanoma
  GI50: 0.363 µM
  TGI: 61.2 µM
SK-OV-3 ovarian
  GI50: 0.392 µM
  TGI: > 49.5 µM
SN12C renal
  GI50: 0.806 µM
  TGI: > 100 µM
SNB-19 CNS
  GI50: 0.58 µM
  TGI: > 100 µM
SNB-75 CNS
  GI50: 0.295 µM
  TGI: > 100 µM
SW-620 colon
  GI50: 0.334 µM
  TGI: > 100 µM
T-47D breast
  GI50: 0.489 µM
  TGI: > 100 µM
TK-10 renal
  GI50: > 67.7 µM
  TGI: > 100 µM
U251 CNS
  GI50: 0.456 µM
  TGI: > 100 µM
UACC-62 melanoma
  GI50: 0.55 µM
  TGI: > 100 µM
UO-31 renal
  GI50: 0.961 µM
  TGI: > 100 µM

## COc1ccc2c(CN3CCC[C@H]3C(=O)O)cc3cc4c(cc3c2c1)OCO4
786-0 renal
  GI50: 16.2 µM
  TGI: > 100 µM
A498 renal
  GI50: 11.1 µM
  TGI: 26.4 µM
A549 NSCLC
  GI50: 21.5 µM
  TGI: > 100 µM
ACHN renal
  GI50: 5.97 µM
  TGI: > 100 µM
BT-549 breast
  GI50: 15.7 µM
  TGI: 43.3 µM
CAKI-1 renal
  GI50: 25 µM
  TGI: 88.6 µM
CCRF-CEM leukemia
  GI50: 10.2 µM
  TGI: > 100 µM
COLO 205 colon
  GI50: 6.3 µM
  TGI: 46.2 µM
DU-145 prostate
  GI50: 19.7 µM
  TGI: > 100 µM
EKVX NSCLC
  GI50: 20.2 µM
  TGI: 65.7 µM
HCC-2998 colon
  GI50: 14.5 µM
  TGI: 33.7 µM
HCT-116 colon
  GI50: 4.8 µM
  TGI: > 100 µM
HCT-15 colon
  GI50: 19.1 µM
  TGI: > 100 µM
HL-60(TB) leukemia
  GI50: 22.9 µM
  TGI: 67.8 µM
HOP-62 NSCLC
  GI50: 19.4 µM
  TGI: 86.1 µM
HOP-92 NSCLC
  GI50: 17.4 µM
  TGI: 82.5 µM
HS 578T breast
  GI50: 11.6 µM
  TGI: 48 µM
HT29 colon
  GI50: 8.46 µM
  TGI: 62 µM
IGROV1 ovarian
  GI50: 25.4 µM
  TGI: > 100 µM
K-562 leukemia
  GI50: 20.2 µM
  TGI: > 100 µM
KM12 colon
  GI50: 12 µM
  TGI: 41.8 µM
LOX IMVI melanoma
  GI50: 5.06 µM
  TGI: 43.6 µM
M14 melanoma
  GI50: 13.3 µM
  TGI: 27.3 µM
MALME-3M melanoma
  GI50: 2.59 µM
  TGI: 17.7 µM
MCF7 breast
  GI50: 13.5 µM
  TGI: 62.3 µM
MDA-MB-231 breast
  GI50: 23.5 µM
  TGI: > 100 µM
MDA-MB-435
  GI50: 14.7 µM
  TGI: 30.4 µM
MOLT-4 leukemia
  GI50: 5.33 µM
  TGI: > 100 µM
NCI-H226 lung
  GI50: 17 µM
  TGI: > 100 µM
NCI-H460 lung
  GI50: 14.6 µM
  TGI: 88.2 µM
NCI-H522 lung
  GI50: 11.1 µM
  TGI: 95.2 µM
NCI/ADR-RES ovarian
  GI50: 23.8 µM
  TGI: > 100 µM
OVCAR-3 ovarian
  GI50: 12 µM
  TGI: 63 µM
OVCAR-4 ovarian
  GI50: 19.2 µM
  TGI: 61.4 µM
OVCAR-5 ovarian
  GI50: 38.1 µM
  TGI: > 100 µM
OVCAR-8 ovarian
  GI50: 5.65 µM
  TGI: 82.3 µM
RPMI-8226 leukemia
  GI50: 9.87 µM
  TGI: 39.3 µM
RXF 393 renal
  GI50: 6.81 µM
  TGI: 23.2 µM
SF-268 CNS
  GI50: 9.87 µM
  TGI: 67.1 µM
SF-295 CNS
  GI50: 8.88 µM
  TGI: 39.4 µM
SF-539 CNS
  GI50: 10.7 µM
  TGI: 29.5 µM
SK-MEL-2 melanoma
  GI50: 12.6 µM
  TGI: 29.8 µM
SK-MEL-28 melanoma
  GI50: 15.5 µM
  TGI: 36.8 µM
SK-MEL-5 melanoma
  GI50: 12.2 µM
  TGI: 34.2 µM
SK-OV-3 ovarian
  GI50: 14.6 µM
  TGI: 51.1 µM
SN12C renal
  GI50: 6.04 µM
  TGI: 73.2 µM
SNB-19 CNS
  GI50: 14 µM
  TGI: > 100 µM
SNB-75 CNS
  GI50: 11.4 µM
  TGI: 30.1 µM
SR leukemia
  GI50: 6.23 µM
  TGI: > 100 µM
SW-620 colon
  GI50: 5.15 µM
  TGI: 70.4 µM
T-47D breast
  GI50: 20 µM
  TGI: > 100 µM
TK-10 renal
  GI50: 14.7 µM
  TGI: 67.4 µM
U251 CNS
  GI50: 13.2 µM
  TGI: > 100 µM
UACC-257 melanoma
  GI50: 12.6 µM
  TGI: 45.8 µM
UACC-62 melanoma
  GI50: 10.9 µM
  TGI: 23.7 µM
UO-31 renal
  GI50: 17 µM
  TGI: > 100 µM
